Like-named read-outs stand apart in the source and are kept apart here.

For data set [1] the following is noted: acute intraperitoneal toxicity in mice; cited from earlier work.
Data set [2] in a line: Ehrlich ascites tumour test (LD50, ED50, therapeutic index). Format: in vivo, SPF NMRI mice. The conditions noted are these: mouse, in vivo, ip; one injection i.p., mice; dose causing 50 percent lethality. Summed up: (§1)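 SPF NMRI mice implanted i.p. with 2 × 10^6 Ehrlich ascites (ELD hyperdiploid) cells and given a single i.p. dose the next day; killed on day 8. ED50 = dose halving tumour weight versus controls, LD50 = dose lethal to 50%; T.I. = LD50/ED50.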

The subject of data set [3] is Ehrlich ascites tumour, ELD hyperdiploid (46 chromosomes). Described as above. Format: in vivo, SPF NMRI mice. The conditions noted are these: for T.I. (LD50/ED50): Ehrlich ascites, mice, i.p.; for ED50: Mus musculus, Ehrlich, ip; for anti-tumor activity: additional compounds, result in words. Summed up: as §1
Data set [4] relates to Walker carcinosarcoma 256. The experiment in a line: Walker carcinosarcoma 256 test. The format is in vivo, Sprague Dawley rats. The conditions noted are these: for Lethality: died/used animals. The source says:
(§2) The experimental design and the interpretation of the results have been in accordance with the standards set by the CCNSC (Cancer Chemotherapy Reports, January 1959 and December 1962), and by the DR&D (Cancer Chemotherapy Reports, September 1972, Vol. 3, No. 2).
(§3) The way of administration is by the intraperitoneal route (i.p.) in each case.
Walker carcinosarcoma 256
Experimental animals: Sprague Dawley rats.
Tumour implant: Tumour pieces with 2-4 mm diameter, subcutaneously.
Therapy: Daily injections i.p. for 5 days starting on the day following implantation.
Termination: The animals are killed on the 9th day.
Evaluation: Weights of tumours of test animals are compared with those of control animals. The differences, in per cent of weights of tumours of control animals, give per cent tumour inhibition.
The lethality is given as the number of animals which died in the experiment/the number of animals used in the experiments.

For the next data set, the system named is utering weight. Kind of data set: Estrogenic effect in immature female mice. Format: in vivo. The note with it: for estrogenic activity, 17β-estradiol and its 3-acetate compared with each other: same kind of experiment. On the procedure:
(§4) The androgenic and estrogenic activities, as described below, are determined with established methods (see e.g. Dorfman, R.: Methods in Hormone Research, vol. II, Acad. Press, New York and London 1962, pp. 93 and 275).
The estrogenic effect is assayed in immature female mice. The animals receive the compounds once daily for three consecutive days, and on the 4th day the utering weight is determined.

The next data set can be described thus: in vivo. Also noted: species or system SPF Wistar rats. The note with it: rat, in vivo, ip; one injection i.p., rats; dose causing 50 percent lethality. Put shortly:
(§5)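 Therapeutic index (LD50/ED50) was derived from tumour weight against controls at day-8 sacrifice, with ED50 the dose giving 50% tumour reduction. Rats (SPF Wistar) bore 5 × 10^6 hepatoma cells implanted intraperitoneally. A single i.p. injection followed on the day after implantation.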

In another data set the test system is Hepatoma AH 130. The experiment in a line: in vivo. The conditions noted are these: for T.I. (LD50/ED50): Hepatoma AH 130, rats, i.p.; for ED50: Rattus norvegicus, ip, 192 h, one injection i.p. day after implantation, dose causing 50 percent reduction of tumour size. Details: species or system SPF Wistar rats. Summed up:
as §5

Data set [5] is described as follows: Thymolytic effect according to A. C. Hilger (assay 8). The conditions noted are these: in vivo. The text has this:
Thymolytic effect according to A. C.

Data set [6] has as its system Lymphatic leukemia L 1210. Kind of data set: Lymphatic leukemia L 1210 test. The format is in vivo, CDF1 (C3H×DBA/2)F1 mice. The note with it: for effect on L 1210: result in words, dose not given; for Effect %: survival time as percentage of control; for Weight change v: vs control up to the 5th day.
Text: as §2, §3
Lymphatic leukemia L 1210
Experimental animals: CDF1 (C3H×DBA/2)F1 mice.
Tumour implant: 10^5 tumour cells i.p.
Therapy: One injection i.p. on the day following implantation.
Evaluation: a) The survival time of the test animals (t) expressed as the percentage of that of control animals (c).
b. Weight change in the test animals (T) compared with that of the control animals (c) up to the 5th day.
c. The mortality rate must not exceed 35% in the test animals on the 5th day of therapy.

Another data set relates to ventral prostate. Kind of data set: Androgenic effect in castrated male rats. The note with it: subcutanous and intraperitoneal administration, 7 days. The format is in vivo. On the procedure:
as §4
The androgenic effect is assayed in castrated male rats. Beginning two weeks after castration the animals are given one daily injection of the compound for 7 days. The weight of the ventral prostate is determined on the 8th day.

Where [7] appears, read: one injection i.p. day after implantation, dose causing 50 percent reduction of tumour size, read-out: ED50.

Broadly, the LD50 is the dose expected to kill half of the subjects tested. For `CCCCOC(=O)N(CCCl)N=O` [CH3 (CH2)2 CH2 --], the 50% lethal dose (LD50) in data set [1] is 11 to 15 mg/kg.

Broadly, the ED50 is the dose that gives a 50% effect, or the effect in half of the subjects. As to `S=P(N1CC1)(N1CC1)N1CC1` [Triethylene-thiophosphoramide, reference compound], the LD50 in [2] is 22 mg/kg. For the same compound, the “T.I. (LD50/ED50)” value in data set [3] worked out at 1.5. For the same compound, in data set [3] (setting [7]), the ED50 is 15 mg/kg.

For `CC(=O)Oc1ccc2c(c1)CC[C@@H]1[C@@H]2CC[C@]2(C)[C@@H](OC(=O)N(CCCl)N=O)CC[C@@H]12` [estradiol-3-acetate-17β-N-(2-chloroethyl)-N-nitroso carbamate], the anti-tumor activity entry in data set [3] is listed as “exhibit anti-tumor activity”. Moreover, in [4] (5×250 mg/kg i.p.), the Tumour inhibition % came to 74% and the Lethality is 1/8. The “estrogenic effect compared with 17β-estradiol and 17β-estradiol-3-acetate” value with utering weight (given orally, subcutanously or intraperitoneally) was “about 10 times weaker”. Further, the LD50 in the data set “in vivo” is > 1000 mg/kg. Also, in the data set on Hepatoma AH 130, the “T.I. (LD50/ED50)” value is > 10 and it took a dose of 96 mg/kg to reach the 50% effect level (ED50).

For `C[C@]12C=CC(=O)C=C1CC[C@@H]1[C@@H]2[C@@H](O)C[C@@]2(C)[C@H]1CC[C@]2(O)C(=O)COC(=O)N(CCCl)C(=O)N(CCCl)N=O` [prednisolone-21-/N^2,N^4-bis (2-chloroethyl)-N^4-nitroso allophanate/], the “thymolytic activity compared with prednisolone acetate” value in data set [5] was “about the same activity as prednisolone acetate”. The anti-tumor activity entry in data set [3] is given as “exhibit anti-tumor activity”; in the data set with Hepatoma AH 130 (additional compounds, result in words), “exhibit anti-tumor activity”. The “effect on L 1210” value in [6] is recorded as “show a significant effect”.

As to `C[C@]12CC[C@H]3[C@@H](CCC4=CC(=O)CC[C@@]43C)[C@@H]1CC[C@@H]2OC(=O)N(CCCl)N=O` [testosterone-17β-N-(2-chloroethyl)-N-nitroso carbamate], the anti-tumor activity entry in data set [3] was “exhibit anti-tumor activity”. In the data set with ventral prostate, the “androgenic effect compared with testosterone” value is listed as “about the same androgenic effect as testosterone”. Also, in [4] (5×250 mg/kg i.p.), the Tumour inhibition % is on record as 64% and the Lethality is reported as 0/8. Besides, in data set [6] (1×125 mg/kg i.p.), the Mortality was 0/40, the Effect % came out at 125% and the Weight change v is on record as -1.8 g. Moreover, in “in vivo”, the LD50 is > 1000 mg/kg. Also, in the data set with Hepatoma AH 130, the “T.I. (LD50/ED50)” value was > 100 and the ED50 was 8 mg/kg.

For `C[C@]12CC[C@H](OC(=O)N(CCCl)N=O)CC1=CC[C@@H]1[C@@H]2CC[C@]2(C)C(=O)CC[C@@H]12` [dehydroepiandrosterone-3β-N-(2-chloroethyl)-N-nitroso carbamate], the LD50 in data set [2] is > 1000 mg/kg. Also, the “T.I. (LD50/ED50)” value in data set [3] was > 102. In addition, the 50% effective dose (ED50) in [3] (setting [7]) stood at 98 mg/kg. Besides, in the data set on ventral prostate, the “androgenic effect compared with testosterone” value was “somewhat weaker androgenic effect”. Besides, in [4] (5×250 mg/kg i.p.), the Tumour inhibition % was determined as 66% and the Lethality is recorded as 0/16. In data set [6] (1×500 mg/kg i.p.), the Mortality is listed as 0/40, the Effect % is on record as 143% and the Weight change v was -2.5 g. Moreover, the LD50 in the data set “in vivo” is > 1000 mg/kg. This compound had a median effective dose (ED50) in the data set on Hepatoma AH 130 of 0.4 mg/kg.

`C[C@]12CC[C@H]3[C@@H](CCC4=CC(=O)CC[C@@H]43)[C@@H]1CC[C@@H]2OC(=O)N(CCCl)N=O` [19-nortestosterone-17β-N-(2-chloroethyl)-N-nitroso carbamate]: the anti-tumor activity entry in data set [3] is on record as “exhibit anti-tumor activity”. Also, in [4] (5×63 mg/kg i.p.), the Tumour inhibition % was determined as 65% and the Lethality was 1/8. In data set [6] (1×31 mg/kg i.p.), the Mortality is on record as 0/40, the Effect % is 142% and the Weight change v is reported as -1.0 g. For the same compound, in “in vivo”, the 50% lethal dose (LD50) was determined as 150 mg/kg. For the same compound, in the data set with Hepatoma AH 130, the “T.I. (LD50/ED50)” value is recorded as 300 and the ED50 came to 0.5 mg/kg.

With `CC(=O)[C@H]1CC[C@H]2[C@@H]3CC=C4C[C@@H](OC(=O)N(CCCl)N=O)CC[C@]4(C)[C@H]3CC[C@]12C` [pregnenolone-3β-N-(2-chloroethyl)-N-nitroso carbamate], in data set [3], the anti-tumor activity entry is “exhibit anti-tumor activity”. For the same compound, in [4] (5×500 mg/kg i.p.), the Tumour inhibition % amounted to 55% and the Lethality is listed as 0/8. Further, in [6] (1×500 mg/kg i.p.), the Mortality is given as 0/20, the Effect % worked out at 136% and the Weight change v is listed as -0.8 g. The median lethal dose (LD50) in “in vivo” is > 1000 mg/kg. Besides, in the data set on Hepatoma AH 130, the “T.I. (LD50/ED50)” value is listed as > 526 and the ED50 is 1.9 mg/kg.

In the case of `C1CN1c1nc(N2CC2)nc(N2CC2)n1` [Triethylene-melamine, reference compound], the LD50 in data set [2] came to 2.7 mg/kg. In addition, the “T.I. (LD50/ED50)” value in [3] is listed as 2.6. The 50% effective dose (ED50) in data set [3] (setting [7]) is 1.03 mg/kg.

The compound `CS(=O)(=O)OCCCCOS(C)(=O)=O` [Busulfan, reference compound] gave an LD50 in data set [2] of 71 mg/kg. The “T.I. (LD50/ED50)” value in data set [3] amounted to 1.3. Further, the median effective dose (ED50) in [3] (setting [7]) is 55 mg/kg.

Consider `O=P1(N(CCCl)CCCl)NCCCO1` (stereo not drawn) [Cyclofosfamid, reference compound], for which the LD50 in data set [2] is 470 mg/kg. Moreover, in [3], the “T.I. (LD50/ED50)” value turned out to be 7.6 and the median effective dose (ED50) is 62 mg/kg.

In the case of `CC(=O)Oc1ccc2c(c1)CC[C@@H]1[C@@H]2CC[C@]2(C)[C@@H](O)CC[C@@H]12` [17β-estradiol-3-acetate], the “estrogenic activity, 17β-estradiol and its 3-acetate compared with each other” value with utering weight is “about the same estrogenic activity”.

As to `O=NN(CCCl)C(=O)Oc1ccccc1` [Phenyl], the LD50 in [1] is 3 to 7 mg/kg.

Turning to `O=C(O)CCCc1ccc(N(CCCl)CCCl)cc1` [Chlorambucil, reference compound], in data set [2], the LD50 came out at 33 mg/kg.

For the compound `C[C@]12CC[C@@H]3c4ccc(O)cc4CC[C@H]3[C@@H]1CC[C@@H]2O` [17β-estradiol, estra-1,3,5(10)-triene-3,17β-diol], the “estrogenic activity, 17β-estradiol and its 3-acetate compared with each other” value with utering weight is reported as “about the same estrogenic activity”.

Turning to `C[C@]12CC[C@@H]3c4ccc(OC(=O)N(CCCl)N=O)cc4CC[C@H]3[C@@H]1CCC2=O` [estrone-3-N-(2-chloroethyl)-N-nitroso carbamate], the anti-tumor activity entry in [3] was “exhibit anti-tumor activity”. Further, in data set [4] (5×125 mg/kg i.p.), the Tumour inhibition % is 75% and the Lethality was 0/8. Further, in data set [6], the “effect on L 1210” value is reported as “show a significant effect”. For the same compound, the LD50 in “in vivo” was > 1000 mg/kg. Moreover, in the data set on Hepatoma AH 130, the “T.I. (LD50/ED50)” value was > 2.000 and the ED50 came out at 0.5 mg/kg.

Turning to `C[C@]12CC[C@@H](OC(=O)N(CCCl)N=O)C[C@@H]1CC[C@@H]1[C@@H]2CC[C@]2(C)[C@@H](OC(=O)N(CCCl)N=O)CC[C@@H]12` [androstanediol-3α,17β-bis/N-(2-chloroethyl)-N-nitroso carbamate/], the anti-tumor activity entry in data set [3] is “exhibit anti-tumor activity”. Also, in [4] (5×250 mg/kg i.p.), the Tumour inhibition % was found to be 75% and the Lethality is reported as 1/8. In data set [6], the “effect on L 1210” value is recorded as “show a significant effect”. In addition, the LD50 in “in vivo” was > 1000 mg/kg. This compound also displayed an ED50 with Hepatoma AH 130 of 1 mg/kg.

For the compound `O=NN(CCCl)C(=O)Oc1ccc2ccccc2c1` [β-Naphthyl], the LD50 in data set [1] is 42 mg/kg.

Values taken from patent US3963707A, “Novel N-nitroso compounds, compositions containing such compounds, processes for their preparation and methods of treatment therewith, and novel intermediates” (Aktiebolaget Leo, priority 1973, dated 1976).
